According to patent publication US10265286B2, “Sequelae of cardiopulmonary bypass-induced pulmonary injury” (Vanderbilt University, priority 2016, dated 2019):

Experiments:
[1] = Perioperative oral citrulline supplementation in children undergoing congenital cardiac surgery; assay type: in vivo, human
Procedure: Initial supplementation trials utilized oral citrulline at a dose of 1.9 g/kg before cardiopulmonary bypass, immediately postoperatively and every 12 hours, continuing for 48 hours after surgery.
40 patients with one of the 5 surgical diagnoses identified above were randomized to receive 5 doses of oral citrulline (1.9 grams/kg) vs. placebo. The first dose was administered immediately prior to surgery and the second dose immediately on arrival in the Pediatric ICU after surgery followed every 12 hours×3 doses.

[2] = Phase IB study: total respiratory support; assay type: in vivo, human; settings: invasive and non-invasive
Text: The analysis of total respiratory support includes any invasive and non-invasive respiratory support required during the study period. The mean total duration of respiratory support in the citrulline treatment group was less than half the duration in the placebo treatment group; the difference was statistically significant (Table 11).

[3] = Phase IB study: duration of ICU stay; assay type: in vivo, human
Procedure: Duration of ICU stay was analyzed once as the total number of postoperative hours spent in the ICU and once as the total number of postoperative hours that a patient required postoperative mechanical ventilator or continuous intravenous inotrope or vasodilator support. The latter combination of parameters represents another surrogate endpoint for ICU stay.

[4] = Revised dosing protocol study: duration of respiratory support and cardiovascular parameters (Example 8); assay type: in vivo, human
Text: The study in this example was undertaken to test a revised dosing protocol designed to achieve and maintain therapeutic citrulline levels in the face of ultrafiltration and crystalloid replacement. […] The study recruited 22 patients randomized in equal numbers of 11 patients each to placebo and citrulline arms.
Early in the course of the study, it was recognized that one of the two participating centers routinely extubated all patients in the operating room immediately following cessation of cardiopulmonary bypass. This precluded use of the duration of mechanical ventilation as an endpoint. Instead, a post-hoc analysis was applied using the duration of all forms of ventilatory support as a possible endpoint. […] In contrast, contingency table analysis, shown in FIG. 16, did achieve borderline significance. Overall, the results are considered to represent a strong trend.

[5] = Phase IB study: plasma nitric oxide (NO metabolite) concentrations; assay type: in vivo, human; settings: each of the treatment groups
Procedure: Twenty two (22) patients were enrolled and treated. Patients received an IV citrulline bolus of 150 mg/kg or placebo at the initiation of CPB, followed by the addition of L-citrulline at a concentration of 200 μmol/L or placebo to the filtration or hemoconcentration replacement fluid used during CPB. A citrulline bolus of 20 mg/kg was administered 30 minutes after decannulation from CPB, immediately followed by a 9-mg/kg/hr continuous infusion of citrulline or placebo for 48 hours. Study participation ended at discharge or at Day 28 whichever came first.
Plasma citrulline concentration levels were the primary PK variable; these were assessed in blood samples collected at 7 perioperative time points. Secondary PK variables were concentrations of arginine and nitric oxide (NO) metabolites in the same sample set. PK values were compared between groups.

[6] = Phase IB study: safety (adverse events, bleeding, laboratory, hemodynamics); assay type: in vivo, human
Procedure: Primary safety assessments included hemodynamic monitoring to identify clinically significant hypotension using age-specific limits. Adverse event information was collected, and postoperative bleeding was recorded.
Further safety, laboratory, and clinical assessments were performed from baseline to discharge, secondary clinical variables included: postoperative mechanical ventilation, duration of total respiratory support, hemodynamic improvement, postoperative PVT by echocardiogram, serum creatinine and liver enzymes, inotrope score, duration of chest tube usage, length of intensive care unit stay, length of hospitalization and survival.

[7] = Randomized placebo controlled intravenous citrulline study, 77 patients (plasma citrulline target); assay type: in vivo, human; settings: citrulline removed by hemofiltration during CPB
Text: An intravenous citrulline study conducted was a randomized, placebo controlled, double blind study with the primary clinical outcome being length of mechanical ventilation postoperatively and secondarily the incidence of postoperative pulmonary hypertension between the 2 treatment groups (citrulline vs placebo).
A total of 77 patients were enrolled at Vanderbilt Children's Hospital. Patients were screened based on the surgical schedule. Based on this schedule, patients undergoing one of the 5 planned cardiac surgeries included in this study were screened (patients undergoing the Norwood procedure are now excluded at the recommendation of the DSMB).

[8] = Phase IB study: postoperative invasive mechanical ventilation; assay type: in vivo, human; settings: for patients extubated in the operating room: Site 02
Procedure: The duration of postoperative invasive mechanical ventilation was derived as the time in hours from separation from cardiopulmonary bypass until endotracheal extubation. If a patient required reintubation within 24 hours after extubation, the reintubation time was added in the main analysis. In a second analysis, the reintubation time was not included.

[9] = Hemodynamics (mean arterial blood pressure) after intravenous citrulline in piglets; assay type: in vivo, Duroc swine; settings: 600 mg/kg IV
Procedure: The objective was to assess the safety of intravenous citrulline and its effect on serum arginine levels in piglets. A total of 9 Duroc swine, aged 5-21 days, with a target minimum weight of 4 kg were utilized. All piglets underwent anesthetic induction and tracheostomy. Central lines were placed in the femoral artery and femoral vein and hemodynamics monitored continuously. Citrulline (600 mg/kg IV) was administered to 5 piglets. Saline was given to control animals. Serum amino acids were drawn before and each hour after citrulline administration.

[10] = total postoperative hours in ICU

NC(=O)NCCCC(N)C(=O)O (stereo not shown) [Citrulline, 2-amino-5-(carbamoylamino)pentanoic acid]
Plasma citrulline levels ([1]; 5 doses of oral citrulline 1.9 grams/kg, placebo 26): 36 µmol/L
tolerability ([1]; oral 1.9 g/kg before CPB, postoperatively and every 12 hours for 48 hours): well tolerated with no evidence of significant adverse events
Total duration of respiratory support, Diff (CI) placebo vs citrulline [2]: 50.7 (5.4, 96.0) hours
Total duration of respiratory support, Median [2]: 23.6 h
Total duration of respiratory support, Range [2]: 0.0 to 100.1 h
Total duration of respiratory support, Mean ± SD ([2]; N = 11): 31.2 ± 28.27 h
Longest duration of mechanical ventilation, i.v. inotrope use, or vasodilator use, Diff (CI) placebo vs citrulline ([3]; re-intubation excluded): 17.5 (−1.2, 36.2) hours
Longest duration of mechanical ventilation, i.v. inotrope use, or vasodilator use, Mean ± SD ([3]; re-intubation excluded): 14.5 ± 13.99 h
Longest duration of mechanical ventilation, i.v. inotrope use, or vasodilator use, Median ([3]; re-intubation excluded): 15.0 h
Longest duration of mechanical ventilation, i.v. inotrope use, or vasodilator use, Range ([3]; re-intubation excluded): 0.0 to 47.0 h
Longest duration of mechanical ventilation, i.v. inotrope use, or vasodilator use, Diff (CI) placebo vs citrulline ([3]; re-intubation included): 29.9 (−11.0, 70.9) hours
Longest duration of mechanical ventilation, i.v. inotrope use, or vasodilator use, Mean ± SD ([3]; re-intubation included): 14.5 ± 13.99 h
Longest duration of mechanical ventilation, i.v. inotrope use, or vasodilator use, Median ([3]; re-intubation included): 15.0 h
Longest duration of mechanical ventilation, i.v. inotrope use, or vasodilator use, Range ([3]; re-intubation included): 0.0 to 47.0 h
Duration of PICU stay, Diff (CI) placebo vs citrulline [3, 10]: 69.14 (−49.39, 187.67) hours
Duration of PICU stay, Median [3, 10]: 28.52 h
Duration of PICU stay, Range [3, 10]: 20.8 to 72.0 h
Duration of PICU stay, Mean ± SD ([3]; total postoperative hours in ICU, N = 11): 35.94 ± 16.150 h
systolic and diastolic blood pressure versus placebo ([4]; FIG. 18A): No significant change in systolic and diastolic blood pressure
mean arterial pressure versus placebo ([4]; FIG. 18B): No significant change in the mean arterial pressure
patients with Duration of Respiratory Support ≤50 hours ([4]; contingency table, placebo 3): 7
patients with Duration of Respiratory Support >50 hours ([4]; contingency table, placebo 8): 2
inotrope scores versus placebo ([4]; particularly from 15 to 18 hours onward following ICU admission (FIG. 17)): markedly better inotrope scores
adverse effects upon hemodynamic parameters ([4]; revised dosing protocol): No adverse effects upon hemodynamic parameters were observed
plasma nitric oxide levels across the sampling time points [5]: remained more or less unchanged
AE hypotension ([6]; citrulline group): 27%
AE tachypnea ([6]; citrulline group): 27%
AE hypertension ([6]; citrulline group, placebo 36%): 27%
AE pleural effusion ([6]; citrulline group, placebo 45%): 36%
patients with at least one treatment-emergent AE ([6]; citrulline group, placebo 73%): 100%
Heart rate ([6]; citrulline vs placebo): consistently higher in the placebo group than the citrulline group
AE leading to death, SAE, AE leading to discontinuation ([6]; in vivo): No AE leading to death, no SAE, and no AE leading to discontinuation
impact on oxygen saturation or systemic arterial blood pressure ([6]; in vivo): no noteworthy impact
post-operative bleeding (length and volume of chest tube drainage) versus placebo ([6]; in vivo): no difference in post-operative bleeding
BUN ([6]; stable in the placebo group, p=0.0111): increased from baseline through to Day 2
attainment of sustained target plasma citrulline level of 100 μmol/L [7]: did not reach the therapeutic sustained target plasma citrulline level
Duration of invasive mechanical ventilation, Diff (CI) placebo vs citrulline ([8]; Re-intubation time excluded): 19.5 (1.9, 37.2) hours
Duration of invasive mechanical ventilation, Mean ± SD ([8]; Re-intubation time excluded): 5.1 ± 8.15 h
Duration of invasive mechanical ventilation, Median ([8]; Re-intubation time excluded): 0.0 h
Duration of invasive mechanical ventilation, Range ([8]; Re-intubation time excluded): 0.0 to 22.5 h
Duration of invasive mechanical ventilation, Diff (CI) placebo vs citrulline ([8]; Re-intubation time included): 32.0 (−9.5, 73.4) hours
Duration of invasive mechanical ventilation, Median ([8]; Re-intubation time included): 0.0 h
Duration of invasive mechanical ventilation, Range ([8]; Re-intubation time included): 0.0 to 22.5 h
Duration of invasive mechanical ventilation, Mean ± SD ([8]; Re-intubation time included, N = 11): 5.1 ± 8.15 h
Duration of invasive mechanical ventilation, Mean ± SD ([8]; Re-intubation time included, N = 11, listed as citrulline): 5 h
patients extubated in the operating room ([8]; placebo 2): 6 patients
patients extubated in the operating room ([8]; placebo 33%): 100%
hemodynamic instability [9]: No hemodynamic instability
Mean Arterial Blood Pressures ([9]; 1 hour post): 67.4 mmHg
Mean Arterial Blood Pressures ([9]; 2 hours post): 64.8 mmHg
Mean Arterial Blood Pressures ([9]; 3 hours post): 62.2 mmHg
Mean Arterial Blood Pressures ([9]; Pre-dose): 67.0 mmHg
